Data on nine compounds can be found in paper PMC5974090, “A fluorescence anisotropy assay to discover and characterize ligands targeting the maytansine site of tubulin” (Nature Communications, 2018).

Assay [1] deals with T1, tubulin (Bos taurus, UniProt Q6B856). Also on record: method as in Panda et al., Proc Natl Acad Sci USA 95, 9313 (1998). The conditions noted are these: exact binding site on tubulin unknown; ref Panda et al., Proc Natl Acad Sci USA 95, 9313 (1998); cited from earlier work.
T1 sequence (Q6B856 whole entry): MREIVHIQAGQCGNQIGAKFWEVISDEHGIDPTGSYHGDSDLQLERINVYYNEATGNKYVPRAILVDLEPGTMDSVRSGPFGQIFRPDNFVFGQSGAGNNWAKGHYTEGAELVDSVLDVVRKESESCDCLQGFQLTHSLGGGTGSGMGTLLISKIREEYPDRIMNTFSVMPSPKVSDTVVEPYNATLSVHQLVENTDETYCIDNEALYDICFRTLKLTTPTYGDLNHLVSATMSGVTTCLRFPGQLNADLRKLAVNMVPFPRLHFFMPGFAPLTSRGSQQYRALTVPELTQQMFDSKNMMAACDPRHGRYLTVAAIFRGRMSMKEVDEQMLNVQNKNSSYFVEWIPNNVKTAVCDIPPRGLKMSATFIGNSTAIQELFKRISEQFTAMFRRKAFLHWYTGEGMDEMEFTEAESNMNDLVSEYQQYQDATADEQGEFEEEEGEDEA
T1 sequence (P81947 whole entry partner): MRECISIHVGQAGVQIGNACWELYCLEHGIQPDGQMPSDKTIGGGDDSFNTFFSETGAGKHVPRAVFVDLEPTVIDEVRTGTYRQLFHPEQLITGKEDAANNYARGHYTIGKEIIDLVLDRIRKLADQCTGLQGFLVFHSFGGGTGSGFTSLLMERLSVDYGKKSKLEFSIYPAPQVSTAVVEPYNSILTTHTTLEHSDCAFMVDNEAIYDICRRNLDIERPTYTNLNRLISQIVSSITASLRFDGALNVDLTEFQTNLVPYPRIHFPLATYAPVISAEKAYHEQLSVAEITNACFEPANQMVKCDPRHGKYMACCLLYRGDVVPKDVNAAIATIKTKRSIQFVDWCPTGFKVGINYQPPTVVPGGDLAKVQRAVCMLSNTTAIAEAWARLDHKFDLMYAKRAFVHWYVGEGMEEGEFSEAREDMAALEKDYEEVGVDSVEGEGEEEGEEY
Details of assay [2]: method as in Panda et al., Proc Natl Acad Sci USA 95, 9313 (1998). To be noted: ref Panda et al., Proc Natl Acad Sci USA 95, 9313 (1998); cited from earlier work.
Assay [3] has as its target T1, tubulin. Briefly: Fluorescence anisotropy titration of FcMaytansine with tubulin (direct binding). The conditions noted are these: 25 °C. The procedure: The binding constant of the fluorescent FcMaytansine probe to tubulin was determined by fluorescence anisotropy titration at 25 °C in black Greiner 384-well, flat-bottom microplates and in a final volume of 50 µL. 10 nM FcMaytansine in assay buffer (15 mM PIPES-KOH, pH 6.8, supplemented with 0.3 mM MgCl2 and 0.2 mM EDTA) was titrated with increasing amounts of tubulin up to 400 nM. The anisotropy and fluorescence values of the free (r = 0.016 ± 0.001, fluorescence = 1 (arbitrary units)) and bound (r = 0.245 ± 0.005, fluorescence = 3.10 ± 0.05 (arbitrary units)) states were determined in the absence and presence of 400 nM tubulin, respectively. The anisotropy was measured using a PHERAstar microplate reader (BMG Labtech) with the fluorescence polarization module. […] The read height and the gain were adjusted automatically. […]
In order to calculate the binding constant of FcMaytansine and one of a non-fluorescent ligand from a competition experiment, the fractional saturation, νb, of FcMaytansine has to be determined. Binding of FcMaytansine to tubulin was measured through changes in its anisotropy. […]
In the simplest case of a fluorescent probe with no quantum yield difference between the bound and the free state, the fraction of bound (νb) and free (νf) fluorophore coincides with the fluorescence fractions for the bound and free fluorophore (Fb and Ff, respectively). […]
In general terms: Fluorescence polarisation rises when a labelled molecule tumbles more slowly, as on binding a larger partner.

For a further assay, the system named is cells. Also on record: method as in PMID 25826705. The conditions noted are these: in vitro cytotoxicity, compound added exogenously; cited from earlier work.
Assay [4] addresses maytansine site of tubulin (Bos taurus, UniProt Q6B856). In kind it is binding. To be noted: for Kd: 25 °C, mean ± SEM, n = 3, read-out: Kd from FcMaytansine displacement. The procedure: Vinblastine and colchicine were used as negative controls. […] The mixture was then incubated with an unlabeled competitor at increasing concentrations prior to anisotropy measurements.
Fluorescence anisotropy competition experiments and analyses were performed as previously described[34] with minor modifications. Samples containing 10 nM FcMaytansine and 4 nM tubulin in assay buffer were titrated with increasing amounts of a competitor at 25 °C in black Greiner 384-well, flat-bottom microplates and in a final volume of 50 µL. Fluorescence anisotropy measurements were carried out as described above.
The system was solved using EQUIGRA5[34] using the binding constant of FcMaytansine and a stoichiometry of 1:1 for the tubulin–FcMaytansine complex (EQUIGRA5 can be obtained upon request from Fernando Díaz, fer@cib.csic.es).

For assay [5], the target named is T1, tubulin. The arrangement: method as in PMID 20937594. The conditions noted are these: reported previously; buffer with 100 mM PIPES; read-out: Kd for the tubulin-maytansine interaction; cited from earlier work.
The next assay concerns mouse xenograft models. Also on record: method as in Xu et al. 2011; Rothmeier et al. 2010; Paterson et al. 2003. To be noted: ref Xu et al. 2011, Rothmeier et al. 2010, Paterson et al. 2003; cited from earlier work.
For the next assay, the system named is human cancer cell lines. Also on record: method as in Xu et al. 2011; Rothmeier et al. 2010; Paterson et al. 2003. The conditions noted are these: large panel of human cancer cell lines; ref Xu et al. 2011; Rothmeier et al. 2010; Paterson et al. 2003; cited from earlier work.
[6] abbreviates: 10 nM FcMaytansine, 4 nM tubulin.
[7] abbreviates: 10 nM FcMaytansine, 4 nM tubulin, increasing competitor concentrations.

Like-named read-outs stand apart in the source and are kept apart here.

Chain of maytansine site of tubulin (P81947 whole entry): as the sequence (P81947 whole entry partner) above
Chain of maytansine site of tubulin (Q6B856 whole entry): as the sequence (Q6B856 whole entry) above

Take `COc1ccc(C[C@H]2NC(=O)/C=C/C[C@@H]([C@H](C)[C@H]3O[C@@H]3c3ccccc3)OC(=O)[C@H](CC(C)C)OC(=O)C(C)(C)CNC2=O)cc1Cl` [Cryptophycin 52]: the Kd on tubulin [1] is 47 nM. Further, the half-maximal inhibitory concentration (IC50) in assay [2] was 0.02 nM.
Turning to `COc1cc2cc(c1Cl)N(C)C(=O)CC(OC(=O)CCCCc1cn(CCCNC(=O)c3ccc(C(=O)O)c(-c4c5ccc(=O)cc-5oc5cc(O)ccc45)c3)nn1)C1(C)OC1C(C)C1CC(O)(NC(=O)O1)C(OC)C=CC=C(C)C2` (centres unmarked) [FcMaytansine], the dissociation constant (Kd) on tubulin [3] (10 nM FcMaytansine, tubulin 0 to 400 nM, single binding site model, mean ± SEM, n = 5, read-out: dissociation constant, Kd, for the tubulin-FcMaytansine interaction) came out at 6.8 ± 0.8 nM. Besides, the “binding constant of FcMaytansine to tubulin” value at tubulin [3] (stoichiometry 1:1, association constant) is on record as 1.6 ± 0.3 × 10^8 M^−1.
As to `COc1cc2cc(c1Cl)N(C)C(=O)CC(OC(=O)C(C)N(C)C(=O)CCSC1CC(=O)N(CC3CCC(C(=O)NCCCCC(N)C(=O)O)CC3)C1=O)C1(C)OC1C(C)C1CC(O)(NC(=O)O1)C(OC)C=CC=C(C)C2` (centres unmarked) [M9], the “fold less potent in cellular assays than S-Me DM1” value in the assay with cells is ~ 450 fold.
In the case of `C/C=C\C[C@@H](C/C=C\NC(=O)[C@@H](NC(=O)\C=C/C=C\C(C)=C\[C@H](C)[C@@H]1CC=C(OC)C(=O)O1)C(C)(C)C)OC(N)=O` [PM060184], the Kd in assay [4] (setting [6]) amounted to 111 ± 30 nM. Also, the “displacement of FcMaytansine from tubulin” value (shortened to “displacement of FcMaytansine”) in assay [4] (setting [7]) is given as “fully displaced”.
On to `C/C=C/[C@H](O)C(C)(C(=O)OC)[C@@H]1C\C=C/C=C/C=C/c2nc(co2)C(=O)O[C@H](C(C)(C(=O)OC)[C@@H](O)/C=C/C)C\C=C/C=C/C=C/c2nc(co2)C(=O)O1` (some centres unmarked) [disorazole Z], for which the “binding affinity value relative to maytansine and spongistatin” value in assay [4] (times higher Kd than maytansine and spongistatin, rebuttal letter) is ~ 100 times.
Consider `COc1cc2cc(c1Cl)N(C)C(=O)C[C@H](OC(=O)[C@H](C)N(C)C(C)=O)[C@]1(C)O[C@H]1[C@H](C)[C@@H]1C[C@@](O)(NC(=O)O1)[C@H](OC)/C=C/C=C(\C)C2` [maytansine], for which the dissociation constant (Kd) on tubulin [5] was ~900 nM.
`CC[C@]1(O)C[C@@H]2CN(CCc3c([nH]c4ccccc34)[C@@](C(=O)OC)(c3cc4c(cc3OC)N(C)[C@H]3[C@@](O)(C(=O)OC)[C@H](OC(C)=O)[C@]5(CC)C=CCN6CC[C@]43[C@@H]65)C2)C1` [vinblastine]: the “displacement of FcMaytansine” value in assay [4] is “not”.
Take ansamitocin P3: the “displacement of FcMaytansine” value in assay [4] (setting [7]) was “fully displaced”.
In the case of spongistatin-1, the Kd in assay [4] (setting [6]) amounted to 9.5 ± 1.9 nM. For the same compound, in the assay with mouse xenograft models, the “in vivo antitumour activity” value is recorded as “antitumour activity”. In addition, the antiproliferative activity result in the assay with human cancer cell lines is listed as “single digit picomolar”.

A word on the Kd: it is a measure of binding affinity in units of concentration. The term IC50 denotes the concentration that inhibits the measured activity by half.
